Measured values published in patent publication US9023876B2, “Compounds and methods for regulating integrins” (Adhaere Pharmaceuticals, Inc., priority 2010, dated 2015).

Key:
[1] = biological target: T1, CD11b A-domain (αA-domain) (Homo sapiens, UniProt P11215); test: αA-domain ligand-binding assay (GST-αA-domain to immobilized Fg); settings: to level of activating mutant I316G
T1 construct: protein fragments spanning residues Gly^111-Gly^321 (321WT); made in house; host or cells: Escherichia coli
Excerpt: Purification of recombinant CD11b A-Domain (.Alpha.A-Domain). Recombinant human aA-domains were constructed and purified according to published protocols. […] The aA-domain in its active conformation was generated by replacing Ile^316 with Gly (1316G [55]) using forward primer 5′-[…]-3′ (SEQ ID NO: 3) and reverse primer 5′-[…]-3′ (SEQ ID NO: 4). The insert was digested with BamHI and SmaI and ligated into pGEX-2T vector also digested with BamHI and SmaI. All constructs were confirmed by direct DNA sequencing. All recombinant proteins were expressed as glutathione S-transferase (GST) fusion proteins in Escherichia coli and purified by affinity chromatography (Glutathione-beads, Sigma) following manufacturer's instructions. Purified protein preparations were dialyzed against 20 mm Tris-HCl, pH 7.5, 150 mm NaCl (Tris-buffered saline) and subsequently concentrated using Amicon-10 columns (Millipore) and stored at −80° C. […]
Maxisorp 96-well plates were coated with Fg (1 μg/well) in 10 mM PBS, pH 7.4 overnight and blocked with 1% bovine serum albumin in PBS. […] Subsequently, the amount of bound protein was determined by incubating with anti-GST antibody conjugated to horseradish peroxidase (GE, Piscataway, N.J.) (1:2000 dilution) for 1 hr. […] Absorbance was read using Spectromax M5 spectrophotometer (Molecular Devices, Sunnyvale, Calif.). […]

murine neutrophils = test: Neutrophil chemotaxis assay in Zigmond chamber, fMLP gradient; format: cell-based, mouse; settings: vs DMSO
Method: Neutrophil chemotaxis on 2D surfaces was performed using Zigmond chamber (Neuro Probe) as described on acid cleaned glass or Fg coated glass coverslips. Cell migration was allowed in a gradient of […] bacterial peptide formyl-methionyl-leucyl-phenylalanine (fMLP, Sigma), in the absence or presence of leukadherins ([…]). Cell migration was recorded at every 30 sec interval for a period of 25 min using a Nikon Eclipse 90i inverted microscope. Images were acquired with a Nikon DS camera using a PLAN APO 20X differential interference contrast (DIC) microscopy objective and captured into Nikon Imaging software. Analysis of neutrophil migration was performed with the motile population that had moved more than 10 μm using ImageJ software (NIH, USA) with manual cell tracking using the Ibidi chemotaxis and migration tool plugin for ImageJ. Migration velocity and the total displacement (distance from origin) were also analyzed. Quantitation was performed using at least 50 independent cells per condition from at least three independent experiments.
Leukocyte chemotaxis on 2D surfaces involves integrin-mediated sequential adhesion and de-adhesion steps [77]. […] To test if increased cell-adhesion by leukaderins affects cell migration, we used murine neutrophils chemotaxing in response to a gradient of chemokine peptide formyl-Met-Leu-Phe (fMLP). […]

Fischer 344 rats = test: Balloon induced arterial injury in rats; format: in vivo, rat
Excerpt: All surgeries were under isoflurane anaesthesia (Baxter, Ill., USA). Balloon injury in the right iliac artery was inflicted with a 2F Fogarty catheter (Baxter Corp., Irvine, Calif., USA) adapted to a custom angiographic kit (Boston Scientific, Scimed). An aortotomy in the abdominal aorta was made to insert a 2F Fogarty embolectomy catheter to the level of the right iliac artery. The balloon was inflated to 1.5-1.6 atmospheres and retracted to the arteriotomy site three times. The aortic excision was repaired with 8.0 sutures. The abdominal cavity was closed by planes using interrupted suture pattern. Arterial specimens were collected 3-30 days after injury and fixed in 4% formalin-PBS (Sigma-Aldrich, St. Louis, Mo.) for 5 min and analyzed by histology and immunostaining
Elastica van Gieson staining was used for histochemical analyses to evaluate neointima formation. Morphometric analyses was performed in a blinded fashion using NIH ImageJ. Immunostaining with anti-rat CD68 (1:50, AbD Serotec) for the detection of macrophages in the tissue.
Leukocyte recruitment precedes neointimal thickening and restenosis following percutaneous transluminal coronary angioplasty (PTCA). […]

B6 male mice = test: Renal I/R injury in mice; format: in vivo, mouse; settings: given 30 min prior to I/R injury, 24 h post-ischemia, vs DMSO; not shown
Method: Leukadherins reduce renal I/R injury. To evaluate use of leukadherins in the I/R injury induced changes in the kidney function of WT mice, we performed another experiment. B6 male mice (8-12 weeks of age) were anesthetized and kept on a heating pad to keep them at a constant 37° C. temperature. Next, an abdominal incision was made and the renal pedicles were occluded bilaterally with a nontraumatic vascular clamp for 30 minutes, the clamp then removed and the surgical incision was closed. Sham surgery was performed with an identical procedure but without application of the clamps. Renal I/R injury was assessed at 24 h post-ischemia by measuring the serum creatinine levels. Mouse sera from the tail incision was used for the analyses of sCr (and BUN levels (not shown)) using manual kits (Stanbio Laboratory).

T1 sequence (P11215 127-337): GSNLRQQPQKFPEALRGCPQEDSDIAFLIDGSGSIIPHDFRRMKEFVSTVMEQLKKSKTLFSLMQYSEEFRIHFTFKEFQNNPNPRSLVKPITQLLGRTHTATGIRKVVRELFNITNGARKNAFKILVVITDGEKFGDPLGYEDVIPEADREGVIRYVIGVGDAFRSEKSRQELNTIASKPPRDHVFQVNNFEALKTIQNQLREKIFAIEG

O=C(O)c1ccc(-c2ccc(/C=C3\SC(=S)N(Cc4ccccc4)C3=O)o2)cc1 [LA1]
binding of the WT αA to the immobilized ligand [1]: increased binding | lateral migration of neutrophils (murine neutrophils): significant decrease | migration velocity of neutrophils (murine neutrophils): significant decrease | neointima to media ratio (Fischer 344 rats; rat arteries 21 days after balloon injury, vehicle 0.23±0.01): 0.16±0.02 | number of medial macrophages (CD68) (Fischer 344 rats; rat arteries three days post-injury, vehicle 42.2±6.7): 17.7±3.1 | serum creatinine (sCr) levels (B6 male mice): significant reduction
